Laboratory results published in patent US20080195322A1, “Quantification of the Effects of Perturbations on Biological Samples” (The Board of Regents of the University of Texas System, priority 2007, published 2008).

Tested on: HeLa cells
Assay: High-throughput image-based multivariate phenotypic profiling (d-profiles) of the 100-compound compendium by fluorescence microscopy
Assay type: cell-based, human
Conditions: for compound closest to first d-profile / compound closest to second d-profile: compounds with multiple d-profiles
Description: To illustrate the performance of the present multivariate approach, the disclosed methods were applied to a compendium of fluorescence microscopy images in which HeLa cells were treated with 100 compounds, dissolved in dimethyl sulfoxide (DMSO), over 13 threefold titrations as shown in FIGS. 5A and 5B. The compounds represented approximately 20 categories of activities as shown in the table of FIG. 6, selected to cover mechanisms of toxicity, signaling pathways, and therapeutic targets in cancer and other diseases. Compound effects were assayed in duplicate on 384-well plates, using four sets of multiplexed molecular markers (DNA-SC35-anillin; DNA-p53-cFos; DNA-p38-pERK; DNA-mirotubule-actin). On average, 2413±852 (mean±standard deviation) cells were captured per well, from 103,580 images per marker set, to yield a total of ˜37 million individual identified cells. Cells treated with DMSO alone were used as controls.
Although most of these features were derived from the measurements of individual markers, some features measured information from more than one marker (such as the spatial correlation between the intensities of two different markers).
Due to biological and experimental variability, the significance thresholds of classification accuracy at p=0.05 estimated on every plate were much higher than 50% (FIGS. 8A-D, lower panels, dashed lines), and occasionally could reach as high as 90%. Therefore, well-to-well variability, even within the control population, could be high and should not be ignored.
To simulate a drug screen for compounds of similar target to a known compound, a d-profile was selected to be the reference profile, while all other d-profiles from the compendium were used as blinded test profiles. Similarity scores between the reference profile and all other test profiles were computed and ranked. The test profiles that were most similar to the reference profile were selected as “drug candidates.”
For each reference profile, the performance in identifying test profiles was estimated with similar a target on each marker set by using prior target annotations as the “gold standard.” […] was used as the performance evaluation criterion (Methods). “On-target” effects were defined as d-profiles whose AUC values were significant (p<0.05), and all other d-profiles were defined as “off-target.” 73%, 40%, 67%, and 56% of the compounds with more than one d-profile and at least one on-target d-profile had at least one off-target d-profile on the DNA-SC35-anillin, DNA-p53-cFos, DNA-p38-pERK and DNA-MT-actin marker sets respectively. […] Thus, the present method can identify dose-dependent secondary or tertiary responses that were very different from the primary responses.
The compound category of a novel d-profile may be inferred by comparison to a collection of previously categorized reference d-profiles. […] Although all of these compounds are histone deacetylase inhibitors, oxamflatin, trichostatin, and scriptaid are hydroxamic acids having very different chemical structures than apicidin, a cyclic tetrapeptide. […] For a d-profile, an accurate prediction was made when its most similar d-profile was annotated to the same target category.

[1] = drug screening simulation against prior target annotations

COc1cccc2c1C(=O)c1c(O)c3c(c(O)c1C2=O)C[C@@](O)(C(=O)CO)C[C@@H]3O[C@H]1C[C@H](N)[C@H](O)[C@H](C)O1 [doxorubixin]
number of features needed to detect compound effects after recursive feature removal (in each of the four marker sets): only a single feature

CC[C@@]1(O)C(=O)OCc2c1cc1n(c2=O)Cc2cc3ccccc3nc2-1 [Camptothecin]
compound closest to first d-profile (category prediction): closest to another topoisomerase inhibitor, etoposide
compound closest to second d-profile (category prediction): closest to a CDK inhibitor, alsterpullone
off-target effects (d-profiles whose AUC not significant) [1]: one off-target effect
on-target effects (d-profiles whose AUC values were significant, p<0.05) [1]: one on-target effect

Oxamflatin
most similar d-profiles (category prediction) (DNA-p38-pERK marker set): most similar to trichostatin, scriptaid, and apicidin

NC(=O)NO [hydroxy urea-2, hydroxy urea]
most similar d-profiles (category prediction) (DNA-p53-cFos marker set): most similar to aphidicolin and methotrexate

COC(=O)Nc1nc2ccc(C(=O)c3cccs3)cc2[nH]1 [nocadazale, Nocodazole]
d-profile similarity to the group of microtubule stabilizing compounds (taxol second d-profile, epothilone B, griseofulvin) (category prediction): further away

CC(=O)O[C@H]1C(=O)[C@@]2(C)[C@H]([C@H](OC(=O)c3ccccc3)[C@]3(O)C[C@H](OC(=O)[C@H](O)[C@@H](NC(=O)c4ccccc4)c4ccccc4)C(C)=C1C3(C)C)[C@]1(OC(C)=O)CO[C@@H]1C[C@@H]2O [taxol, Taxol]
number of d-profiles (across all four marker sets, 13 threefold titrations): 2
compound closest to first d-profile (category prediction): closest to sulindac sulfide
compound closest to second d-profile (category prediction): closest to epothilone B and griseofulvin
